Laboratory results from patent US20060178372A1, “Therapeutic quinoline compounds” (AstraZeneca AB, priority 2001, published 2006).

test system: not given; assay: not given; details: not given

Row | melting point | SMILES
1 | 215 to 216 °C | CN1CCN(c2cccc3c2OC(C(=O)Nc2ccc(N4CCOCC4)cc2)CC3=O)CC1 (racemic) [Example 78, racemic-8-(4-methyl-piperazin-1-yl)-4-oxo-chroman-2-carboxylic acid (4-morpholin-4-yl-phenyl)-amide]
2 | 158.1 to 158.8 °C | CN1CCN(c2cccc3c(=O)cc(-c4nc5ccc(N6CCOCC6)cc5o4)oc23)CC1 [Example 21, 8-(4-Methyl-piperazin-1-yl)-2-(6-morpholin-4-yl-benzooxazol-2-yl)-chromen-4-one]
3 | 217 to 218 °C (dec.) | CN1CCN(c2cccc3c(=O)cc(C(=O)Nc4ccc(N5CCOCC5)cc4)oc23)CC1 [Example 1, 8-(4-methyl-1-piperazinyl)-N-[4-(4-morpholinyl)phenyl]-4-oxo-4H-chromene-2-carboxamide]
4 | 215 to 216 °C | CN1CCN(c2cccc3c2OC(C(=O)Nc2ccc(N4CCOCC4)cc2)CC3)CC1 (racemic) [Example 75, racemic-8-(4-Methyl-piperazin-1-yl)-chroman-2-carboxylic acid (4-morpholin-4-yl-phenyl)-amide]
5 | 236 to 238 °C | CCNC(=O)N1CCN(c2ccc(NC(=O)c3cc(=O)c4cc(F)cc(N5CCN(C)CC5)c4o3)cc2)CC1 [Example 81, 4-[4-({1-[6-Fluoro-8-(4-methyl-piperazin-1-yl)-4-oxo-4H-chromen-2-yl]-methanoyl}-amino)-phenyl]-piperazine-1-carboxylic acid ethylamide]
6 | 245 to 246.8 °C | CN1CCN(c2cccc3c(=O)cc(C(=O)N(C)c4ccc(N5CCOCC5)cc4)oc23)CC1 [Example 25, 8-(4-Methylpiperazin-1-yl)-4-oxo-4H-chromene-2-carboxylic acid methyl-(4-morpholin-4-yl-phenyl)amide]
7 | 205.5 to 207 °C | CN1CCN(c2cccc3c2OC(C(=O)Nc2ccc(N4CCOCC4)cc2)CC3)CC1 (single isomer, unassigned; (-)) [Example 77, (−)-8-(4-Methyl-piperazin-1-yl)-chroman-2-carboxylic acid (4-morpholin-4-yl-phenyl)-amide]
8 | 216 °C (dec.) | CN1CCN(c2cccc3c2OC(C(=O)Nc2ccc(N4CCOCC4)cc2)CC3=O)CC1 (single isomer, unassigned) [Example 79, 8-(4-Methyl-piperazin-1-yl)-4-oxo-chroman-2-carboxylic acid (4-morpholin-4-yl-phenyl)-amide (faster running isomer)]
9 | 206 to 207 °C | CN1CCN(c2cccc3c2OC(C(=O)Nc2ccc(N4CCOCC4)cc2)CC3)CC1 (single isomer, unassigned; (+)) [Example 76, (+)-8-(4-Methyl-piperazin-1-yl)-chroman-2-carboxylic acid (4-morpholin-4-yl-phenyl)-amide]
10 | 233 to 234 °C | CCS(=O)(=O)N1CCN(c2ccc(NC(=O)c3cc(=O)c4cc(F)cc(N5CCN(C)CC5)c4o3)cc2)CC1 [Example 71, 6-Fluoro-8-(4-methyl-piperazin-1-yl)-4-oxo-4H-chromene-2-carboxylic acid [4-(4-ethane sulfonyl-piperazin-1-yl)-phenyl]-amide]
11 | 234 to 236 °C | COc1cc(N2CCN(C)CC2)c2oc(C(=O)Nc3ccc(N4CCOCC4)cc3)cc(=O)c2c1 [Example 31, 6-Methoxy-8-(4-methyl-piperazin-1-yl)-4-oxo-4H-chromene-2-carboxylic acid (4-morpholin-4-yl-phenyl)-amide]
12 | 248.4 to 249.6 °C | CN1CCN(c2cccc3c(=O)cc(C(=O)Nc4ccc(N5CCOCC5)cc4O)oc23)CC1 [Example 22, 8-(4-Methyl-piperazin-1-yl)-4-oxo-4H-chromene-2-carboxylic acid (2-hydroxy-4-morpholin-4-yl-phenyl)-amide]
13 | 195 to 199 °C | CN1CCN(c2cc(F)cc3c(=O)cc(C(=O)Nc4ccc(N5CCN(C(=O)CCO)CC5)cc4)oc23)CC1 [Example 73, 6-Fluoro-8-(4-methyl-piperazin-1-yl)-4-oxo-4H-chromene-2-carboxylic acid {4-[4-(3-hydroxy-propanoyl)-piperazin-1-yl]-phenyl}-amide]
14 | 195 to 197 °C | COc1cc(N2CCN(C)CC2)c2oc(C(=O)Nc3ccc(N4CCN(C(=O)CCO)CC4)cc3)cc(=O)c2c1 [Example 68, 6-Methoxy-8-(4-methyl-piperazin-1-yl)-4-oxo-4H-chromene-2-carboxylic acid {4-[4-(3-hydroxy-propanoyl)-piperazin-1-yl]-phenyl}-amide]
15 | 215 °C (dec.) | CN1CCN(c2cccc3c2OC(C(=O)Nc2ccc(N4CCOCC4)cc2)CC3=O)CC1 (single isomer, unassigned) [Example 80, 8-(4-Methyl-piperazin-1-yl)-4-oxo-chroman-2-carboxylic acid (4-morpholin-4-yl-phenyl)-amide (slower running isomer)]

test system: guinea pigs; assay: learned helplessness test for antidepressant/antianxiety activity; type: in vivo; details: guinea pig
Text: The utility of the compounds for example to treat depression may be shown via a learned helplessness test in guinea pigs, which is used extensively as correlative to antidepressant activity in humans. The learned helplessness test may be carried out as follows: Seventy male Hartley guinea pigs, each weighing about 350-425 gm are fed ad lib, and are housed under a 12-hour light/dark cycle. The procedure consists of two phases: The induction phase and the avoidance training phase. In the induction phase, subjects are placed into standard shuttle cages (20 L×16 W×21 centimeters H) which are fitted with a grid floor. Electrical stimulation (1.25 mA, 10 sec duration) is delivered to the floor of the cage every 90-sec during 1 hour daily sessions. Subjects have no opportunity to escape or to avoid shocks. Induction is conducted for 2 consecutive days.
In avoidance training, testing is also conducted in the shuttle cages, except that the subjects are not returned to the same chamber in which induction had occurred. Additionally, all cages are fitted with a partition with an arch in the center of the cage, through which animals can pass between the left and right halves of the cage. The procedure employed is a standard shuttle avoidance procedure in which a compound, conditioned stimulus (a 10-sec presentation of a tone and turning on of a lamp on the side of the cage that the guinea pig was occupying) serves to indicate presentation of electrical current to the floor of the cage. Shock is presented for a 5 sec period, 5 sec after initiation of the conditioned stimulus. Entry into the opposite side of the shuttle cage via the arched partition prior to shock onset results in the end of the trial (avoidance response). If shock is delivered, entry into the opposite side of the cage results in termination of the shock and CS (escape). Reversal of learned helplessness in the induction subjects correlates to antidepressant activity of the test compound.
Avoidance training, 45-min in duration, is conducted on 2 consecutive days, beginning 48 hr after the final induction session. Seventy subjects are assigned to 1 of 6 groups of 11-12 animals. The groups are as follows:
1) No induction group. The subjects are placed into the shuttle cages but are not given inescapable shock, the animals are subsequently trained in the avoidance procedure and the vehicle is administered;
2) Induction vehicle control group;
3) Imipramine 17.8 mg/kg;
5) 1 mg/kg compounds; and
Groups 2-6 are given induction and avoidance training sessions. Injections are administered immediately following induction sessions and 1 hour prior to avoidance training sessions. A second injection is administered 7-8 hours following the first injection, for a total of 9 injections administered over 5 days. […]

Row | SMILES | activity in the learned helplessness assay
16 | CCC(=O)N1CCN(c2ccc(NC(=O)c3cc(=O)c4cc(F)cc(N5CCN(C)CC5)c4o3)cc2)CC1 [Example 72, 6-Fluoro-8-(4-methyl-piperazin-1-yl)-4-oxo-4H-chromene-2-carboxylic acid [4-(4-propionyl-piperazin-1-yl)-phenyl]-amide] | demonstrate activity
17 | CCS(=O)(=O)N1CCN(c2ccc(NC(=O)c3cc(=O)c4cc(F)cc(N5CCN(C)CC5)c4o3)cc2)CC1 [Example 71, 6-Fluoro-8-(4-methyl-piperazin-1-yl)-4-oxo-4H-chromene-2-carboxylic acid [4-(4-ethane sulfonyl-piperazin-1-yl)-phenyl]-amide] | demonstrate activity
18 | CCC(=O)N1CCN(c2ccc(NC(=O)c3cc(=O)c4cc(OC)cc(N5CCN(C)CC5)c4o3)cc2)CC1 [Example 44, 6-Methoxy-8-(4-methyl-piperazin-1-yl)-4-oxo-4H-chromene-2-carboxylic acid [4-(4-propionyl-piperazin-1-yl)-phenyl]-amide] | demonstrate activity
19 | COc1cc(N2CCN(C)CC2)c2oc(C(=O)Nc3ccc(N4CCOCC4)cc3)cc(=O)c2c1 [Example 31, 6-Methoxy-8-(4-methyl-piperazin-1-yl)-4-oxo-4H-chromene-2-carboxylic acid (4-morpholin-4-yl-phenyl)-amide] | demonstrate activity
